From patent US6498179B1, “Oxazole derivatives, their production and use” (Takeda Chemical Industries, Ltd., priority 1996, dated 2002) come the findings set out here.

The test system of one data set is KKA^y mice. Description: Test for blood sugar depression in mice. In kind it is in vivo. Conditions: Mus musculus, fasted male KKA^y mice, oral 30 mg/kg, compared with control group. Here is the method: After being fasted for 20 hours, 9- to 12-week-old, male KKA^y mice (five mice in each group) were orally given the test compound at a dose of 30 mg/kg/10 ml through a stomach tube. Control mice were orally given 5% gum arabic solution. Blood samples (70 μl) were obtained from orbital venous plexus through capillary tube before and 60 and 120 minutes after the administration of the test compound. Blood glucose was determined according to a glucose oxidase method using a commercial kit (Iatrochem, GIU(A), Iatron Labs. Inc.). Blood glucose level at 60 or 120 minutes of the test groups was compared with that of control group, and was shown as blood glucose depression (%) (Table 1).

The test system of a further data set is MIN6 cells. Description: Insulinotropic effect on MIN6 cells. The format is cell-based, mouse. Particulars: compound 10 μM, 12.5 mM glucose, 2 hours, percentage of control. How it is done: MIN6 cells established from mouse beta cell tumor were cultured in DMEM supplemented with 15% fetal bovine serum on 12-well plate at 37° C. in 5% CO2, and were used at the stage of subconfluency. Cells were washed twice with PBS and incubated in Krebs-Ringer HEPES(KRH) containing with 0.1 mM glucose for 30 minutes. Then they were incubated in KRH containing with 12.5 mM glucose and 0.1% DMSO (control) or compound (10 μM) for 2 hours. Medium was collected and insulin concentration was measured using a commercial radioimmunoassay kit (Amarsham Inc.). The plate was washed once with PBS and cellular protein content was determined by the method of Lowrey et al. (J. Biol. Chem. 193, 265-275, 1951). Insulinotropic activity of the compound was indicated as percentage of control (Table 2).

Setting [1] is: 1 h, 60 minutes after administration, read-out: Degree of Blood Glucose Depression (%) After 60 minutes.
The mark [2] stands for this setting: 2 h, 120 minutes after administration, read-out: Degree of Blood Glucose Depression (%) After 120 minutes.

Like-named read-outs stand apart in the source and are kept apart here.

Consider `CSc1nccn1-c1nc(-c2ccc(Cl)cc2)c(CCC(=O)O)o1` [Example 32, 4-(4-chlorophenyl)-2-(2-methylthio-1-imidazolyl)-5-oxazolep ropionic acid], for which the inhibition in vivo at 30 mg/kg in the data set with KKA^y mice (setting [1]) is 25%; in the data set on KKA^y mice (setting [2]) it was 28%.

With `O=C(O)CCc1oc(-n2cnc3ccccc32)nc1-c1ccc(Cl)cc1` [Example 34, 4-(4-chlorophenyl)-2-(1-benzimidazolyl)-5-oxazolepropionic acid], the inhibition in vivo at 30 mg/kg with KKA^y mice (setting [1]) was determined as 27%; in the data set with KKA^y mice (setting [2]) it was 25%.

As for `Cc1nccn1-c1nc(-c2ccc(Cl)cc2)c(CCCO)o1` [Example 36, 4-(4-chlorophenyl)-2-(2-methyl-1-imidazolyl)-5-oxazolepropanol], the inhibition in vivo at 30 mg/kg with KKA^y mice (setting [1]) was 23%; in the data set with KKA^y mice (setting [2]), 18%. In addition, the “Insulin secretion-promoting effect (%)” value in the data set with MIN6 cells came to 272%.

What is called melting point is the temperature of the solid-liquid transition. In turn, `Cc1nccn1-c1nc(-c2ccc(Cl)cc2)c(CCCCO)o1` [Example 65, 4-(4-chlorophenyl)-2-(2-methyl-1-imidazolyl)-5-oxazolebutanol] had a melting point of 110 to 111 °C. Moreover, the “Insulin secretion-promoting effect (%)” value in the data set with MIN6 cells stood at 397%.

Compound `Cc1nccn1-c1nc(-c2ccc(Cl)cc2)c(CCCn2ccnc2)o1` [Example 72, 4-(4-chlorophenyl)-5-[3-(1-imidazolyl)propyl]-2-(2-methyl-1-imidazolyl)oxazole] returned a melting point of 133 to 134 °C. The “Insulin secretion-promoting effect (%)” value in the data set on MIN6 cells turned out to be 303%.

Compound `Cc1nc(-c2nc(-c3ccc(Cl)cc3)c(CCCCCO)o2)c[nH]1` [Example 83, 4-(4-chlorophenyl)-2-(2-methyl-imidazolyl)-5-oxazolepentanol] returned a melting point of 94 to 95 °C. The “Insulin secretion-promoting effect (%)” value in the data set on MIN6 cells was 359%.

On to `Cc1nccn1-c1nc(-c2ccc(Cl)cc2)c(CCCCn2ccnc2)o1` [Example 89, 4-(4-chlorophenyl)-5-[4-(1-imidazolyl)butyl]-2-(2-methyl-1-imidazolyl)oxazole], for which the melting point is 84 to 85 °C. The “Insulin secretion-promoting effect (%)” value with MIN6 cells stood at 385%.
